Source: ChEMBL document CHEMBL3120150, “Syntheses and structure-activity relationships for some triazolyl p38α MAPK inhibitors” (Bioorg Med Chem Lett, 2014)
Calls of active or inactive are those of the source. The calls are words filed in the database; no cut-off is given here.

What was measured:
[1] = biological target: Mitogen-activated protein kinase 14 (Homo sapiens, UniProt Q16539); test: Inhibition of p38a MAPK (unknown origin) by radiometric assay
HUVEC [2] = test: Inhibition of TNFalpha-induced COX2 gene expression in HUVEC at 10 uM; format: functional, cell-based; conditions: Homo sapiens
HUVEC [3] = test: Inhibition of TNFalpha-induced IL-6 gene expression in HUVEC at 10 uM; format: functional, cell-based; conditions: Homo sapiens

Sequence of Mitogen-activated protein kinase 14 (Q16539 whole entry): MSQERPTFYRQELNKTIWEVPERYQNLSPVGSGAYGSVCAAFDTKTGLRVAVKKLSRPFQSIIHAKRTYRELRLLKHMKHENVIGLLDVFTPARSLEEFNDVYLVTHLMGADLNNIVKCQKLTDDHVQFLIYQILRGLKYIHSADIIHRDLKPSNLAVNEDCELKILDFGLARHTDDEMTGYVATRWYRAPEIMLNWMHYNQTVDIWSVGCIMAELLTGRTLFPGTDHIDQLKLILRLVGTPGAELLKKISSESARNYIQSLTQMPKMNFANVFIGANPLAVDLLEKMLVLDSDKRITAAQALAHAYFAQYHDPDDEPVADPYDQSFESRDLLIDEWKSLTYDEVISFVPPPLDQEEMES

Compound | IC50 [1] [µM] | inhibition (HUVEC [2]) | inhibition (HUVEC [3])
CN(C)c1ccc(-n2cc(-c3nc(-c4ccc(F)cc4)c(-c4ccncc4)n3C)nn2)cc1 | 1.4 |  | 
Cn1c(-c2cn([C@@H](CC(=O)O)C(=O)O)nn2)nc(-c2ccc(F)cc2)c1-c1ccncc1 | 2.3 |  | 
C#Cc1nc(-c2ccc(F)cc2)c(-c2ccncc2)n1C | 0.73 |  | 
Cn1c(-c2cn(-c3ccc(C(=O)O)cc3)nn2)nc(-c2ccc(F)cc2)c1-c1ccncc1 | 0.14 |  | 
Cn1c(-c2cn(C(C)(C)C(=O)O)nn2)nc(-c2ccc(F)cc2)c1-c1ccncc1 | 1.49 |  | 
Cn1c(-c2cn(CC(=O)NCCO)nn2)nc(-c2ccc(F)cc2)c1-c1ccncc1 | 0.89 |  | 
C[C@H](Nc1nccc(-c2c(-c3ccc(F)cc3)nc3nc(N)ccn23)n1)c1ccccc1 | 0.006 |  | 
Cn1c(-c2cn(-c3cccc(C(=O)O)c3)nn2)nc(-c2ccc(F)cc2)c1-c1ccncc1 [listing 1 of 2 here] | 0.091 |  | 
Cn1c(-c2cn(CC(=O)O)nn2)nc(-c2ccc(F)cc2)c1-c1ccncc1 [listing 1 of 2 here] | 0.74 |  | 
Cn1c(-c2cn([C@@H]3[C@@H](O)[C@H](O)[C@@H](CO)O[C@@H]3O)nn2)nc(-c2ccc(F)cc2)c1-c1ccncc1 | 0.71 | Active | Active
O=C(O)[C@H]1OC(n2cc(-c3nc(-c4ccc(F)cc4)c(-c4ccncc4)o3)nn2)[C@H](O)[C@@H](O)[C@@H]1O (some centres undefined) | 1.17 |  | 
O=C(c1ccc(-n2cc(-c3nc(-c4ccc(F)cc4)c(-c4ccncc4)o3)nn2)cc1)N1CCN(CCO)CC1 | 2.4 |  | 
C[S+]([O-])c1ccc(-c2nc(-c3ccc(F)cc3)c(-c3ccncc3)[nH]2)cc1 (centres undefined) |  | Active | Active
CN(C)c1ccc(-n2cc(-c3nc(-c4ccc(F)cc4)c(-c4ccncc4)o3)nn2)cc1 | 19.5 |  | 
CCOC(=O)Cn1cc(-c2nc(-c3ccc(F)cc3)c(-c3ccncc3)n2C)nn1 | 1.87 |  | 
Cn1c(-c2cn([C@H]3CCNC[C@@H]3F)nn2)nc(-c2ccc(F)cc2)c1-c1ccncc1 | 0.096 | Active | Active
Cn1c(-c2cnnn2CC(=O)O)nc(-c2ccc(F)cc2)c1-c1ccncc1 | 4.2 |  | 
OCCOCCOCCOCCOCCOCCOCCOCCn1cc(-c2nc(-c3ccc(F)cc3)c(-c3ccncc3)o2)nn1 | 23.5 |  | 
COC(=O)c1cccc(-n2cc(-c3nc(-c4ccc(F)cc4)c(-c4ccncc4)n3C)nn2)c1 | 0.99 |  | 
CCOC(=O)Cn1nncc1-c1nc(-c2ccc(F)cc2)c(-c2ccncc2)n1C | 56 |  | 
Cn1c(-c2cn(C[C@H]3O[C@@H](O)[C@H](O)[C@@H](O)[C@@H]3O)nn2)nc(-c2ccc(F)cc2)c1-c1ccncc1 | 0.4 |  | 
CCOP(=O)(CCn1cc(-c2nc(-c3ccc(F)cc3)c(-c3ccncc3)n2C)nn1)OCC | > 100 |  | 
Cn1c(-c2cn(CCOCCOCCOCCO)nn2)nc(-c2ccc(F)cc2)c1-c1ccncc1 | 11.2 |  | 
O[C@@H]1[C@@H](O)[C@H](O)O[C@H](Cn2cc(-c3nc(-c4ccc(F)cc4)c(-c4ccncc4)o3)nn2)[C@H]1O | 5.73 |  | 
Cn1c(-c2cn(-c3cccc(C(=O)O)c3)nn2)nc(-c2ccc(F)cc2)c1-c1ccncc1 [listing 2 of 2 here] | 0.185 |  | 
C[C@@H](C(=O)O)n1cc(-c2nc(-c3ccc(F)cc3)c(-c3ccncc3)o2)nn1 | 11.4 |  | 

Compound | IC50 [1] [µM] | inhibition (HUVEC [2]) | inhibition (HUVEC [3])
Fc1ccc(-c2nc(-c3cn(Cc4ccccc4)nn3)oc2-c2ccncc2)cc1 | 158 |  | 
Cn1c(-c2cn(CCOP(=O)(O)O)nn2)nc(-c2ccc(F)cc2)c1-c1ccncc1 | 0.25 |  | 
Cn1c(-c2cn(CC(=O)O)nn2)nc(-c2ccc(F)cc2)c1-c1ccncc1 [listing 2 of 2 here] | 0.43 |  | 
Oc1ccccc1-n1cc(-c2nc(-c3ccc(F)cc3)c(-c3ccncc3)o2)nn1 | 2.17 |  | 
Fc1ccc(-c2nc(-c3c[nH]nn3)oc2-c2ccncc2)cc1 | 0.38 |  | 
C[C@@H](C(=O)O)n1cc(-c2nc(-c3ccc(F)cc3)c(-c3ccncc3)n2C)nn1 | 1.44 |  | 
C#Cc1nc(-c2ccc(F)cc2)c(-c2ccncc2)o1 | 1.79 |  | 
Cn1c(-c2cn(-c3ccccc3C(=O)O)nn2)nc(-c2ccc(F)cc2)c1-c1ccncc1 | 1.53 |  | 
CC(=O)OC[C@H]1O[C@H](OC(C)=O)[C@H](n2cc(-c3nc(-c4ccc(F)cc4)c(-c4ccncc4)n3C)nn2)[C@@H](OC(C)=O)[C@@H]1OC(C)=O | > 100 |  | 
Cn1cnc(-c2ccc(F)cc2)c1-c1ccncc1 | 0.43 | Active | Active
Cn1c(C#CCO)nc(-c2ccc(F)cc2)c1-c1ccncc1 | 0.46 |  | 
Cn1c(-c2cn(CCO)nn2)nc(-c2ccc(F)cc2)c1-c1ccncc1 | 0.5 |  | 
OCCOCCOCCOCCn1cc(-c2nc(-c3ccc(F)cc3)c(-c3ccncc3)o2)nn1 | 12.5 |  | 
Cn1c(-c2cn(CCP(=O)(O)O)nn2)nc(-c2ccc(F)cc2)c1-c1ccncc1 | 0.35 |  | 
CC(=O)OC[C@H]1O[C@H](OC(C)=O)[C@H](n2cc(-c3nc(-c4ccc(F)cc4)c(-c4ccncc4)o3)nn2)[C@@H](OC(C)=O)[C@@H]1OC(C)=O | > 100 |  | 
O=C(O)c1ccc(-n2cc(-c3nc(-c4ccc(F)cc4)c(-c4ccncc4)o3)nn2)cc1 | 0.19 |  | 
Cn1c(-c2cn(-c3cccc(C(=O)NCCCO)c3)nn2)nc(-c2ccc(F)cc2)c1-c1ccncc1 | 0.29 |  | 
Cn1c(-c2cn(CCOCCOCCOCCN)nn2)nc(-c2ccc(F)cc2)c1-c1ccncc1 | 5.18 |  | 
O=C(O)Cn1cc(-c2nc(-c3ccc(F)cc3)c(-c3ccncc3)o2)nn1 | 3.2 |  | 
Cn1c(-c2cn(-c3ccccc3O)nn2)nc(-c2ccc(F)cc2)c1-c1ccncc1 | 1.59 |  | 
OC[C@H]1O[C@H](O)[C@H](n2cc(-c3nc(-c4ccc(F)cc4)c(-c4ccncc4)o3)nn2)[C@@H](O)[C@@H]1O | 1.19 |  | 
O=C(O)c1ccccc1-n1cc(-c2nc(-c3ccc(F)cc3)c(-c3ccncc3)o2)nn1 | 6.51 |  | 
Cn1c(-c2cn(CCOCCOCCOCCOCCOCCOCCOCCO)nn2)nc(-c2ccc(F)cc2)c1-c1ccncc1 | 11.6 |  | 
Cn1c(-c2cn(CC(=O)N3CCN(CCO)CC3)nn2)nc(-c2ccc(F)cc2)c1-c1ccncc1 | 3.8 |  | 
Cn1c(-c2c[nH]nn2)nc(-c2ccc(F)cc2)c1-c1ccncc1 | 0.14 |  | 
Cn1c(-c2cn(C3O[C@H](C(=O)O)[C@@H](O)[C@H](O)[C@H]3O)nn2)nc(-c2ccc(F)cc2)c1-c1ccncc1 (some centres undefined) | 0.59 |  | 
